Measurements as given in publication PMC12606464, “Investigating NFE2L1 activators for targeted protein aggregate clearance: a follow-up study” (RSC Medicinal Chemistry, 2025).

Columns and labels:
Q35-YFP foci = experiment: Q35-YFP aggregation in C. elegans strain AM140; assay type: in vivo, Caenorhabditis elegans
Procedure: Furthermore, we explored the role of RUN-89 in preventing huntingtin protein aggregation in C. elegans. For this AM140 strain, stably expressing aggregation-prone 35-glutamine long repeats marked with yellow fluorescence protein (Q35-YFP) were used.[82,83] A six-day treatment with 50 μM RUN-89 or a vehicle control was conducted, followed by microscopy analysis. […] These findings highlight the substantial impact of RUN-89 on foci formation or persistence, further supporting its role in suppressing pathological clustering in protein aggregation diseases or reducing stress-response assemblies.
Fig. 5 RUN-89 prevents protein aggregation and increases stress resistance in C. elegans. (A) The AM140 strain expressing aggregation-prone Q35-YFP was treated with 50 μM RUN-89 or the vehicle for 6 days, followed by microscopy analysis. Overall, 959 Q35-YFP foci (DMSO = 517; RUN-89 = 442) were identified in 102 animals (DMSO: N = 3 populations, n = 55 animals in total; RUN-89: N = 3 populations, n = 47 animals in total). The two dashed horizontal lines indicate the interquartile range, and the thick horizontal line represents the median. The Kolmogorov–Smirnov test verified a significant reduction of surface and integrated optical density of foci after RUN-89 treatment. (B) Representative images of two animals per treatment condition. Images were taken on the same day, using identical settings for the instruments used. (C) Protective effect of RUN-89 against juglone and paraquat-induced stress. A synchronized population of N2 wild-type worms was exposed to 50 μM RUN-89 for 24 hours to protect against acute oxidative stress triggered by 180 μM juglone and 200 mM paraquat. The mortality was monitored hourly over a 12 hour period. […] Results were analyzed using the Kaplan–Meier method and are presented as survival percentages with standard errors. […]
Transgenic GR2183 worms carrying the reporter gene (rpt -3p::GFP) were exposed to RUN-89 for 24 hours and for AM140 (rmIs132 [unc-54p::Q35::YFP]) to aged 6 days under treatment to establish protein aggregation model. The worms were then anesthetized with […] sodium azide and placed on glass slides with 5% agar for fluorescence microscope observation. The expression of the rpt-3p::GFP reporter in worms was directly related to the intensity of green fluorescence. Images were captured using a Zeiss Axioskop 2 Plus fluorescence microscope and a Zeiss Axio Observer A1 microscope designed for epifluorescence. Image analysis was performed to assess variations in aggregation (both the count and volume of aggregates) and fluorescence signal intensity using ImageJ software (https://imagej.nih.gov/ij/). […]

SKN-1A = experiment: rpt-3p::GFP reporter in C. elegans strain GR2183; assay type: in vivo, Caenorhabditis elegans
Text: Firstly, we investigated whether RUN-89 triggers SKN-1A activation in C. elegans by using the GR2183 strain. By using this strain, the activation of SKN-1A is indicated by GFP expression, which is driven by the promoter of the proteasome subunit gene (rpt-3p::GFP).[80,81]
Figure S9. RUN-89 activates the NFE2L1 orthologue gene SKN-1A in C. elegans.
In the GR2183 strain, activation of the SKN-1A is reported by the expression of GFP under the control of the proteasome subunit gene promoter (rpt-3p::GFP). Animals were treated with 25 µM RUN-89 or DMSO (vehicle control) for 24 hours with subsequent microscopic analysis.
Results of relative GFP fluorescence intensity per single animal are presented. Overall, 71 animals (n | DMSO = 20, RUN-89 = 21) from three independent experiments ( N) were analyzed.
The two dashed horizontal lines indicate the interquartile range, and the thick horizontal line represents the median. A significant increase in fluorescence intensity after RUN-89 treatment was verified by a Kolmogorov-Smirnov test. ***p<0.001. […]
Transgenic GR2183 worms carrying the reporter gene (rpt -3p::GFP) were exposed to RUN-89 for 24 hours and for AM140 (rmIs132 [unc-54p::Q35::YFP]) to aged 6 days under treatment to establish protein aggregation model. The worms were then anesthetized with […] sodium azide and placed on glass slides with 5% agar for fluorescence microscope observation. […]

[1] = AM140, 50 μM, six-day treatment, versus DMSO

COc1ccc(/C=C2\CC(NC(=O)C3CCCC3)C/C(=C\c3ccc(OC)c(OC)c3)C2=O)cc1OC (stereo not drawn) [RUN-89]
Q35-YFP foci relative fluorescence density (Q35-YFP foci; [1]): significant decrease
Q35-YFP foci surface area (Q35-YFP foci; [1]): significant decrease
Q35-YFP intensity, median (Q35-YFP foci; C. elegans, Fig. 5A, DMSO median 1.00): 0.51 fold change to DMSO median
Q35-YFP foci surface, median (Q35-YFP foci; C. elegans, Fig. 5A, DMSO median 20): 17 voxels
Average relative fluorescence intensity per GR2183 animal (SKN-1A; 25 μM, 24 h, 20 °C, young adults, versus vehicle): significantly higher
Median rpt-3p::GFP (SKN-1A reporter) (SKN-1A; GR2183, DMSO median = 100.00, Figure S9): 114.62
